# Values joined by “and” are separate entries in the source; they are usually repeats but may differ in a detail not shown here. Equal values may be shown once.
# How the values were obtained:
# LS174T cells [1] = assay: Optimization of dye concentrations: flow cytometry of LS174T cells labeled with six DiD dyes; format: cell-based, human
# Procedure: (§1) The human colon cancer cell line LS174T was used here as a model to identify the optimal dyes marker with minimal transfer to neighbor cells for cell tracking. A family of DiD dyes (Ex: 648 nm, Em: 667 nm) with variable lipophilic aliphatic tails (Cm/Cn here refer to lengths lipophilic aliphatic tails in the number of C atoms) were investigated: MT279 (C22/C3), MT280 (C22/C12), MT284 (C14/C3), MT285 (C14/C14), CN1012 (C20/C20), MTTI-157 without the DOTA (C22/C22). LS174T cells were cultured in minimal essential medium (MEM) with nonessential amino acids, 10% fetal bovine serum (FBS) and 1% penicillin/streptomycin at 37° C. in a humidified atmosphere with 5% CO2 and were passaged weekly.
# Four working dye stock solutions were investigated. LS174T cells were trypsinized, collected, and washed twice with MEM without serum when the flask was 90% confluent. […] Immediately, prior to staining, 2× working dye stock solutions (1 μM, 4 μM, 10 μM or 20 μM) in Diluent C were prepared. Then 500 μl of cell suspension was added rapidly into 500 μl of 2× working dye and immediately mixed by pipetting. […] The labeled cells were fixed in 2% paraformaldehyde and analyzed by flow cytometry.
# LS174T cells [2] = assay: Dye transfer: co-culture of dye labeled and unlabeled LS174T cells, flow cytometry; format: cell-based, human
# Procedure: as §1
# LS174T cells were trypsinized, collected, and washed twice with MEM without serum and labeled with the six dyes according to the method described above. […] Study sets are described below. One (1) ml of the cell suspension was added rapidly to 1 ml of 2× working dye solution and immediately mixed by pipetting. […] Subsequently, the cells suspension was spun at 400 g for 10 min. […] The cell viability was determined by trypan blue staining. The dye labeled cells were co-cultured with an equal number of unlabeled cells under normal culture conditions. Samples were removed at 0 h, 24 h and 48 h after initiation of co-culture and fixed in 2% paraformaldehyde for flow cytometry analysis.
# TC1 wild type mES cells = assay: Culture and fluorescence microscopy of MTTI-157 labeled TC1 mES cells; format: cell-based, mouse; settings: through Day 4, 2 μM and 10 μM dye
# Procedure: The MTTI-157 labeled mES cells were seeded into 12-well plates with about 0.5×10^6 cells per well to grow under normal culture conditions to evaluate cell viability, differentiation, fluorescence dye stability, and dye partitioning to daughter cells over time. Unlabeled normal TC1 wild type mES cells were used as control. The cell associated fluorescence was detected from the plates on an Olympus IX 70 Inverted Light Microscope (Olympus America, Inc., NY) using a Cy5 filter on Days 0, 1 and 4 after seeding.
# After dye labeling, the trypan blue staining was performed to detect cell viability. […] The fluorescence is shown in red and paired with the phase-contrast image on its right. […] It is obvious from Rows 2 and 3 that the MTTI-157 incorporated into the mES cells. […] By the next day (Day 1), the cells begin to merge forming clones, as expected, and the fluorescence is seen distributed within the clones with passage to other members of the cell cluster, i.e., the daughter cells. On Day 4, the cell clusters are now larger and more cells within the cluster appear to carry the fluorescence signal.
# Wild type mES cells BL/6 = assay: Flow cytometry of BL/6 mES cells labeled with MTTI-157 (percent labeled cells); format: cell-based, mouse
# Text: Unlabeled BL/6 cells were used as a control.
# LS174T cells [3] = assay: Flow cytometry of LS174T cells labeled with MTTI-157: labeling efficiency under different conditions; format: cell-based, human; settings: for labeling efficiency: Set 1, dye dissolved in ethanol
# Procedure: The method for LS174T cells labeling with MTTI-157 was as described as before. Briefly, LS174T cells were trypsinized, collected, and washed twice with MEM without serum and then resuspended in Diluent C. Immediately, prior to staining; a 2× working dye stock solution in Diluent C was prepared. The cell suspension was added rapidly to an equal volume of the 2× working dye solution and immediately mixed by pipetting up. […] Subsequently, the cell suspension was spun at 400 g for 5 min. […] After labeling, the labeled cells were fixed in 2% paraformaldehyde and analyzed by flow cytometry.
# MTTI-157 was dissolved in ethanol at the concentration of 2 μg/μL.
# MTTI-157 was dissolved in DMSO at the concentration of 2 μg/μL.
smiles,measurement,setting,value
CCCCCCCCCCCCCCCCCCCCCCN1C(=CC=CC=CC2=[N+](CCCCCCCCCCCCCCCCCCCCCC)c3ccc(CNC(=O)CN4CCN(CC(=O)O)CCN(CC(=O)O)CCN(CC(=O)O)CC4)cc3C2(C)C)C(C)(C)c2ccccc21.[I-] [MTTI-157],percent of cells labeled,LS174T cells [1]; dye concentration 0.5 μM,71.5%
same,percent of cells labeled,LS174T cells [1]; dye concentration 2 μM,92.3%
same,percent of cells labeled,LS174T cells [1]; dye concentration 5 μM,98.6%
same,percent of cells labeled,LS174T cells [1]; dye concentration 10 μM,99.4%
same,Percent of unlabeled cells incorporating dye from labeled cells compared to the value at 0 h,"LS174T cells [2]; Set 1, 2 μM dye, 24 h of co-culture",22.39%
same,Percent of unlabeled cells incorporating dye from labeled cells compared to the value at 0 h,"LS174T cells [2]; Set 1, 2 μM dye, 48 h of co-culture",22.74%
same,Percent of unlabeled cells incorporating dye from labeled cells compared to the value at 0 h,"LS174T cells [2]; Set 2, 10 μM dye, 24 h",22% and 22.17%
same,Percent of unlabeled cells incorporating dye from labeled cells compared to the value at 0 h,"LS174T cells [2]; Set 2, 10 μM dye, 48 h",28% and 28.45%
same,Percent of unlabeled cells incorporating dye from labeled cells compared to the value at 0 h,"LS174T cells [2]; Set 3, 5 μM dye, 24 h",6.93%
same,Percent of unlabeled cells incorporating dye from labeled cells compared to the value at 0 h,"LS174T cells [2]; Set 3, 5 μM dye, 48 h",22.16%
same,dye transfer to unlabeled cells (in words),"LS174T cells [2]; Set 4, 0.5 μM dye",dye transfer took place
same,Percent of unlabeled cells incorporating dye from labeled cells compared to that at 0 h,"LS174T cells [2]; Set 4, 0.5 μM dye, 24 h",13.58%
same,Percent of unlabeled cells incorporating dye from labeled cells compared to that at 0 h,"LS174T cells [2]; Set 4, 0.5 μM dye, 48 h",14.675%
same,Percent of unlabeled cells incorporating dye from labeled cells compared to that at 0 h,"LS174T cells [2]; Set 4, 2 μM dye, 24 h",23.555%
same,Percent of unlabeled cells incorporating dye from labeled cells compared to that at 0 h,"LS174T cells [2]; Set 4, 2 μM dye, 48 h",25.615%
same,effects on cellular differentiation,TC1 wild type mES cells,no obvious effects on cellular differentiation
same,percent of labeled cells in total cells,Wild type mES cells BL/6; 2 μM dye,9.8%
same,percent of labeled cells in total cells,Wild type mES cells BL/6; 10 μM dye,28.7%
same,percent of labeled cells in total cells,Wild type mES cells BL/6; 20 μM dye,34%
same,labeling efficiency,LS174T cells [3]; final dye concentration 10 μM,about 60%
same,labeling efficiency,LS174T cells [3]; highest final dye concentration of 20 μM,about 70%
same,% labeled cells in total cells by FACS,"LS174T cells [3]; dye dissolved in DMSO, final dye 10 μM, final cells 10 ×10^7/ml, DMSO in 2x working dye stock 2%",97.3%
same,% labeled cells in total cells by FACS,"LS174T cells [3]; dye dissolved in DMSO, final dye 20 μM, final cells 10 ×10^7/ml, DMSO in 2x working dye stock 4%",97.9%
same,% labeled cells in total cells by FACS,"LS174T cells [3]; dye dissolved in DMSO, final dye 20 μM, final cells 20 ×10^7/ml, DMSO in 2x working dye stock 4%",98.6%
same,% labeled cells in total cells by FACS,"LS174T cells [3]; dye dissolved in DMSO, final dye 40 μM, final cells 10 ×10^7/ml, DMSO in 2x working dye stock 8%",99.2%
same,% labeled cells in total cells by FACS,"LS174T cells [3]; dye dissolved in DMSO, final dye 40 μM, final cells 20 ×10^7/ml, DMSO in 2x working dye stock 8%",98.5%
same,% labeled cells in total cells by FACS,"LS174T cells [3]; dye dissolved in DMSO, final dye 80 μM, final cells 10 ×10^7/ml, DMSO in 2x working dye stock 16%",99.5%
same,% labeled cells in total cells by FACS,"LS174T cells [3]; dye dissolved in ethanol, final dye 2 μM, final cells 1 ×10^7/ml, DMSO in 2x working dye stock 0%",12.6%
same,% labeled cells in total cells by FACS,"LS174T cells [3]; dye dissolved in ethanol, final dye 2 μM, final cells 1 ×10^7/ml, DMSO in 2x working dye stock 2%",23.7%
same,% labeled cells in total cells by FACS,"LS174T cells [3]; dye dissolved in ethanol, final dye 2 μM, final cells 10 ×10^7/ml, DMSO in 2x working dye stock 0%",29.5%
same,% labeled cells in total cells by FACS,"LS174T cells [3]; dye dissolved in ethanol, final dye 10 μM, final cells 1 ×10^7/ml, DMSO in 2x working dye stock 0%",62.7%
same,% labeled cells in total cells by FACS,"LS174T cells [3]; dye dissolved in ethanol, final dye 10 μM, final cells 1 ×10^7/ml, DMSO in 2x working dye stock 2%",55.9%
same,% labeled cells in total cells by FACS,"LS174T cells [3]; dye dissolved in ethanol, final dye 10 μM, final cells 10 ×10^7/ml, DMSO in 2x working dye stock 0%",57.9%
same,% labeled cells in total cells by FACS,"LS174T cells [3]; dye dissolved in ethanol, final dye 20 μM, final cells 1 ×10^7/ml, DMSO in 2x working dye stock 0%",74.3%
same,% labeled cells in total cells by FACS,"LS174T cells [3]; dye dissolved in ethanol, final dye 20 μM, final cells 1 ×10^7/ml, DMSO in 2x working dye stock 2%",71.1%
same,% labeled cells in total cells by FACS,"LS174T cells [3]; dye dissolved in ethanol, final dye 20 μM, final cells 10 ×10^7/ml, DMSO in 2x working dye stock 0%",75.0%

# Source: patent US10537650B2, “Molecular probes for multimodality imaging and tracking of stem cells” (University of Massachusetts, priority 2012, dated 2020)
